Test results from patent US20130252816A1, “HERBICIDAL COMPOSITION AND USE THEREOF” (Syngenta Crop Protection LLC, priority 2010, published 2013).

Legend:
Assay in all cases: Example 2: alcohol ethoxylate adjuvants without glyphosate, visual % damage, tracksprayer 300 l/ha
Assay type in all cases: in vivo
Poa annua = test system: Poa annua
Excerpt: (§1) The effect of different types of alcohol ethoxylate (branched—Genapol X-series, and unbranched—Genapol O-series, differing degrees of ethoxylation, see Table 3 below for more details), on unwanted vegetation (broadleaf weed and grass species), in the absence of glyphosate, was investigated and compared to untreated (water only) control weeds.
(§2) Troughs (measuring 16 cm by 13 cm by 5 cm) were filled with local field soil. Seeds of Veronica persica, Stellaria media, Trifolium repens and Poa annua were sown 24 days before application of test samples. Plants were grown in the glasshouse at 18 to 20° C. and 60% relative humidity. Application of alcohol ethoxylate test samples was carried out using a tracksprayer, spraying at a rate of 300 l/ha. Plants were kept in glasshouse and visual assessment of the estimated percentage damage to the plant was carried out 1, 7, and 14 days from application.
(§3) Damage was assessed as wilting, desiccation or any other kind of visual injury in comparison to the untreated control (water only).

Stellaria media = test system: Stellaria media
Excerpt: as §1, §2, §3

Trifolium repens = test system: Trifolium repens
Excerpt: as §1, §2, §3

Veronica persica = test system: Veronica persica
Excerpt: as §1, §2, §3

Substance: Oleyl alcohol polyglycol ether with 2 moles of ethoxylation [GenapolO020]
- mean % damage 1 daa Poa annua (Poa annua; adjuvant 1% w/v): 0%
- mean % damage 7 daa Poa annua (Poa annua; adjuvant 1% w/v): 0%
- mean % damage 14 daa Poa annua (Poa annua; adjuvant 1% w/v): 0%
- mean % damage 1 daa Poa annua (Poa annua; adjuvant 1.5% w/v): 0%
- mean % damage 7 daa Poa annua (Poa annua; adjuvant 1.5% w/v): 0%
- mean % damage 14 daa Poa annua (Poa annua; adjuvant 1.5% w/v): 0%
- mean % damage 1 daa Poa annua (Poa annua; adjuvant 2% w/v): 0%
- mean % damage 7 daa Poa annua (Poa annua; adjuvant 2% w/v): 0%
- mean % damage 14 daa Poa annua (Poa annua; adjuvant 2% w/v): 0%
- mean % damage 1 daa Poa annua (Poa annua; adjuvant 2.5% w/v): 0%
- mean % damage 7 daa Poa annua (Poa annua; adjuvant 2.5% w/v): 0%
- mean % damage 14 daa Poa annua (Poa annua; adjuvant 2.5% w/v): 0%
- mean % damage 1 daa Stellaria media (Stellaria media; adjuvant 1% w/v): 0%
- mean % damage 7 daa Stellaria media (Stellaria media; adjuvant 1% w/v): 0%
- mean % damage 14 daa Stellaria media (Stellaria media; adjuvant 1% w/v): 0%
- mean % damage 1 daa Stellaria media (Stellaria media; adjuvant 1.5% w/v): 0%
- mean % damage 7 daa Stellaria media (Stellaria media; adjuvant 1.5% w/v): 0%
- mean % damage 14 daa Stellaria media (Stellaria media; adjuvant 1.5% w/v): 0%
- mean % damage 1 daa Stellaria media (Stellaria media; adjuvant 2% w/v): 0%
- mean % damage 7 daa Stellaria media (Stellaria media; adjuvant 2% w/v): 0%
- mean % damage 14 daa Stellaria media (Stellaria media; adjuvant 2% w/v): 0%
- mean % damage 1 daa Stellaria media (Stellaria media; adjuvant 2.5% w/v): 0%
- mean % damage 7 daa Stellaria media (Stellaria media; adjuvant 2.5% w/v): 5%
- mean % damage 14 daa Stellaria media (Stellaria media; adjuvant 2.5% w/v): 0%
- mean % damage 1 daa Trifolium repens (Trifolium repens; adjuvant 1% w/v): 0%
- mean % damage 7 daa Trifolium repens (Trifolium repens; adjuvant 1% w/v): 0%
- mean % damage 14 daa Trifolium repens (Trifolium repens; adjuvant 1% w/v): 0%
- mean % damage 1 daa Trifolium repens (Trifolium repens; adjuvant 1.5% w/v): 0%
- mean % damage 7 daa Trifolium repens (Trifolium repens; adjuvant 1.5% w/v): 0%
- mean % damage 14 daa Trifolium repens (Trifolium repens; adjuvant 1.5% w/v): 0%
- mean % damage 1 daa Trifolium repens (Trifolium repens; adjuvant 2% w/v): 0%
- mean % damage 7 daa Trifolium repens (Trifolium repens; adjuvant 2% w/v): 0%
- mean % damage 14 daa Trifolium repens (Trifolium repens; adjuvant 2% w/v): 0%
- mean % damage 1 daa Trifolium repens (Trifolium repens; adjuvant 2.5% w/v): 0%
- mean % damage 7 daa Trifolium repens (Trifolium repens; adjuvant 2.5% w/v): 10%
- mean % damage 14 daa Trifolium repens (Trifolium repens; adjuvant 2.5% w/v): 0%
- mean % damage 1 daa Veronica persica (Veronica persica; adjuvant 1% w/v): 0%
- mean % damage 7 daa Veronica persica (Veronica persica; adjuvant 1% w/v): 0%
- mean % damage 14 daa Veronica persica (Veronica persica; adjuvant 1% w/v): 0%
- mean % damage 1 daa Veronica persica (Veronica persica; adjuvant 1.5% w/v): 0%
- mean % damage 7 daa Veronica persica (Veronica persica; adjuvant 1.5% w/v): 0%
- mean % damage 14 daa Veronica persica (Veronica persica; adjuvant 1.5% w/v): 0%
- mean % damage 1 daa Veronica persica (Veronica persica; adjuvant 2% w/v): 0%
- mean % damage 7 daa Veronica persica (Veronica persica; adjuvant 2% w/v): 0%
- mean % damage 14 daa Veronica persica (Veronica persica; adjuvant 2% w/v): 0%
- mean % damage 1 daa Veronica persica (Veronica persica; adjuvant 2.5% w/v): 0%
- mean % damage 7 daa Veronica persica (Veronica persica; adjuvant 2.5% w/v): 0%
- mean % damage 14 daa Veronica persica (Veronica persica; adjuvant 2.5% w/v): 0%

Substance: Oleyl alcohol polyglycol ether with 8 moles of ethoxylation [GenapolO080]
- mean % damage 1 daa Poa annua (Poa annua; adjuvant 1% w/v): 0%
- mean % damage 7 daa Poa annua (Poa annua; adjuvant 1% w/v): 5%
- mean % damage 14 daa Poa annua (Poa annua; adjuvant 1% w/v): 0%
- mean % damage 1 daa Poa annua (Poa annua; adjuvant 1.5% w/v): 0%
- mean % damage 7 daa Poa annua (Poa annua; adjuvant 1.5% w/v): 5%
- mean % damage 14 daa Poa annua (Poa annua; adjuvant 1.5% w/v): 0%
- mean % damage 1 daa Poa annua (Poa annua; adjuvant 2% w/v): 0%
- mean % damage 7 daa Poa annua (Poa annua; adjuvant 2% w/v): 5%
- mean % damage 14 daa Poa annua (Poa annua; adjuvant 2% w/v): 0%
- mean % damage 1 daa Poa annua (Poa annua; adjuvant 2.5% w/v): 0%
- mean % damage 7 daa Poa annua (Poa annua; adjuvant 2.5% w/v): 5%
- mean % damage 14 daa Poa annua (Poa annua; adjuvant 2.5% w/v): 0%
- mean % damage 1 daa Stellaria media (Stellaria media; adjuvant 1% w/v): 0%
- mean % damage 7 daa Stellaria media (Stellaria media; adjuvant 1% w/v): 0%
- mean % damage 14 daa Stellaria media (Stellaria media; adjuvant 1% w/v): 0%
- mean % damage 1 daa Stellaria media (Stellaria media; adjuvant 1.5% w/v): 0%
- mean % damage 7 daa Stellaria media (Stellaria media; adjuvant 1.5% w/v): 0%
- mean % damage 14 daa Stellaria media (Stellaria media; adjuvant 1.5% w/v): 5%
- mean % damage 1 daa Stellaria media (Stellaria media; adjuvant 2% w/v): 0%
- mean % damage 7 daa Stellaria media (Stellaria media; adjuvant 2% w/v): 5%
- mean % damage 14 daa Stellaria media (Stellaria media; adjuvant 2% w/v): 0%
- mean % damage 1 daa Stellaria media (Stellaria media; adjuvant 2.5% w/v): 0%
- mean % damage 7 daa Stellaria media (Stellaria media; adjuvant 2.5% w/v): 0%
- mean % damage 14 daa Stellaria media (Stellaria media; adjuvant 2.5% w/v): 10%
- mean % damage 1 daa Trifolium repens (Trifolium repens; adjuvant 1% w/v): 0%
- mean % damage 7 daa Trifolium repens (Trifolium repens; adjuvant 1% w/v): 0%
- mean % damage 14 daa Trifolium repens (Trifolium repens; adjuvant 1% w/v): 0%
- mean % damage 1 daa Trifolium repens (Trifolium repens; adjuvant 1.5% w/v): 0%
- mean % damage 7 daa Trifolium repens (Trifolium repens; adjuvant 1.5% w/v): 0%
- mean % damage 14 daa Trifolium repens (Trifolium repens; adjuvant 1.5% w/v): 0%
- mean % damage 1 daa Trifolium repens (Trifolium repens; adjuvant 2% w/v): 5%
- mean % damage 7 daa Trifolium repens (Trifolium repens; adjuvant 2% w/v): 0%
- mean % damage 14 daa Trifolium repens (Trifolium repens; adjuvant 2% w/v): 0%
- mean % damage 1 daa Trifolium repens (Trifolium repens; adjuvant 2.5% w/v): 5%
- mean % damage 7 daa Trifolium repens (Trifolium repens; adjuvant 2.5% w/v): 10%
- mean % damage 14 daa Trifolium repens (Trifolium repens; adjuvant 2.5% w/v): 10%
- mean % damage 1 daa Veronica persica (Veronica persica; adjuvant 1% w/v): 0%
- mean % damage 7 daa Veronica persica (Veronica persica; adjuvant 1% w/v): 5%
- mean % damage 14 daa Veronica persica (Veronica persica; adjuvant 1% w/v): 10%
- mean % damage 1 daa Veronica persica (Veronica persica; adjuvant 1.5% w/v): 0%
- mean % damage 7 daa Veronica persica (Veronica persica; adjuvant 1.5% w/v): 0%
- mean % damage 14 daa Veronica persica (Veronica persica; adjuvant 1.5% w/v): 10%
- mean % damage 1 daa Veronica persica (Veronica persica; adjuvant 2% w/v): 0%
- mean % damage 7 daa Veronica persica (Veronica persica; adjuvant 2% w/v): 0%
- mean % damage 14 daa Veronica persica (Veronica persica; adjuvant 2% w/v): 0%
- mean % damage 1 daa Veronica persica (Veronica persica; adjuvant 2.5% w/v): 0%
- mean % damage 7 daa Veronica persica (Veronica persica; adjuvant 2.5% w/v): 5%
- mean % damage 14 daa Veronica persica (Veronica persica; adjuvant 2.5% w/v): 0%

Substance: Iso-tridecyl alcohol polyglycol ether with 2 moles of ethoxylation [GenapolX020]
- mean % damage 1 daa Poa annua (Poa annua; adjuvant 1% w/v): 0%
- mean % damage 7 daa Poa annua (Poa annua; adjuvant 1% w/v): 0%
- mean % damage 14 daa Poa annua (Poa annua; adjuvant 1% w/v): 0%
- mean % damage 1 daa Poa annua (Poa annua; adjuvant 1.5% w/v): 0%
- mean % damage 7 daa Poa annua (Poa annua; adjuvant 1.5% w/v): 5%
- mean % damage 14 daa Poa annua (Poa annua; adjuvant 1.5% w/v): 0%
- mean % damage 1 daa Poa annua (Poa annua; adjuvant 2% w/v): 0%
- mean % damage 7 daa Poa annua (Poa annua; adjuvant 2% w/v): 5%
- mean % damage 14 daa Poa annua (Poa annua; adjuvant 2% w/v): 0%
- mean % damage 1 daa Poa annua (Poa annua; adjuvant 2.5% w/v): 0%
- mean % damage 7 daa Poa annua (Poa annua; adjuvant 2.5% w/v): 5%
- mean % damage 14 daa Poa annua (Poa annua; adjuvant 2.5% w/v): 0%
- mean % damage 1 daa Stellaria media (Stellaria media; adjuvant 1% w/v): 0%
- mean % damage 7 daa Stellaria media (Stellaria media; adjuvant 1% w/v): 0%
- mean % damage 14 daa Stellaria media (Stellaria media; adjuvant 1% w/v): 0%
- mean % damage 1 daa Stellaria media (Stellaria media; adjuvant 1.5% w/v): 0%
- mean % damage 7 daa Stellaria media (Stellaria media; adjuvant 1.5% w/v): 0%
- mean % damage 14 daa Stellaria media (Stellaria media; adjuvant 1.5% w/v): 0%
- mean % damage 1 daa Stellaria media (Stellaria media; adjuvant 2% w/v): 0%
- mean % damage 7 daa Stellaria media (Stellaria media; adjuvant 2% w/v): 5%
- mean % damage 14 daa Stellaria media (Stellaria media; adjuvant 2% w/v): 5%
- mean % damage 1 daa Stellaria media (Stellaria media; adjuvant 2.5% w/v): 0%
- mean % damage 7 daa Stellaria media (Stellaria media; adjuvant 2.5% w/v): 5%
- mean % damage 14 daa Stellaria media (Stellaria media; adjuvant 2.5% w/v): 0%
- mean % damage 1 daa Trifolium repens (Trifolium repens; adjuvant 1% w/v): 0%
- mean % damage 7 daa Trifolium repens (Trifolium repens; adjuvant 1% w/v): 0%
- mean % damage 14 daa Trifolium repens (Trifolium repens; adjuvant 1% w/v): 0%
- mean % damage 1 daa Trifolium repens (Trifolium repens; adjuvant 1.5% w/v): 5%
- mean % damage 7 daa Trifolium repens (Trifolium repens; adjuvant 1.5% w/v): 5%
- mean % damage 14 daa Trifolium repens (Trifolium repens; adjuvant 1.5% w/v): 0%
- mean % damage 1 daa Trifolium repens (Trifolium repens; adjuvant 2% w/v): 10%
- mean % damage 7 daa Trifolium repens (Trifolium repens; adjuvant 2% w/v): 5%
- mean % damage 14 daa Trifolium repens (Trifolium repens; adjuvant 2% w/v): 0%
- mean % damage 1 daa Trifolium repens (Trifolium repens; adjuvant 2.5% w/v): 10%
- mean % damage 7 daa Trifolium repens (Trifolium repens; adjuvant 2.5% w/v): 5%
- mean % damage 14 daa Trifolium repens (Trifolium repens; adjuvant 2.5% w/v): 10%
- mean % damage 1 daa Veronica persica (Veronica persica; adjuvant 1% w/v): 0%
- mean % damage 7 daa Veronica persica (Veronica persica; adjuvant 1% w/v): 0%
- mean % damage 14 daa Veronica persica (Veronica persica; adjuvant 1% w/v): 0%
- mean % damage 1 daa Veronica persica (Veronica persica; adjuvant 1.5% w/v): 0%
- mean % damage 7 daa Veronica persica (Veronica persica; adjuvant 1.5% w/v): 0%
- mean % damage 14 daa Veronica persica (Veronica persica; adjuvant 1.5% w/v): 0%
- mean % damage 1 daa Veronica persica (Veronica persica; adjuvant 2% w/v): 5%
- mean % damage 7 daa Veronica persica (Veronica persica; adjuvant 2% w/v): 5%
- mean % damage 14 daa Veronica persica (Veronica persica; adjuvant 2% w/v): 5%
- mean % damage 1 daa Veronica persica (Veronica persica; adjuvant 2.5% w/v): 5%
- mean % damage 7 daa Veronica persica (Veronica persica; adjuvant 2.5% w/v): 5%
- mean % damage 14 daa Veronica persica (Veronica persica; adjuvant 2.5% w/v): 5%
